Here are results for 6 compounds from patent US20160046618A1, “Cyclopropyl Fused Thiazin-2-Amine Compounds as Beta-Secretase Inhibitors and Methods of Use” (AMGEN INC., priority 2014, published 2016).

Assay [1] concerns the target Recombinant Cat D (Homo sapiens (Human), UniProt P07339). The assay is described as follows: In vitro enzymatic Cathepsin D (Cat D) FRET assay. The class given is biochemical. Conditions: read-out: IC50 IP (μM) CatD. In outline:
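Recombinant Cat D expressed in CHO cells, assayed in 0.05 M citrate pH 3.5 with 5 mM CHAPS and 10% DMSO final. Reaction started with 20 nM FRET peptide substrate, incubated one hour, then stopped by Tris buffer to neutral pH; fluorescence read at ex 500/em 580 nm.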

The subject of assay [2] is Aβ 40 in rat brain. The assay is described as follows: In vivo inhibition of beta-secretase: Aβ40 reduction in rat brain. The settings on record: 10 mpk, after 4 h. In outline: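 Rats were dosed by oral gavage at up to 100 mg/kg in 2% HPMC, 1% Tween80, pH 2.2, with vehicle-only controls. Supernatant Aβ40 was measured by ECL sandwich ELISA with biotinylated-4G8 capture and C-terminal Fab40 detection.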

Assay [3] has as its system Aβ40 in conditioned medium of cells stably expressing Amyloid Precursor Protein (APP). Nature of the assay: In vitro BACE-1 cell-based assay (Aβ40 sandwich ELISA). The settings on record: read-out: IC50 IP (μM) BACE1 cell. In outline:
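Read-out: time-resolved fluorescence (Streptavidin-Europium) of Aβ40 captured by pAb40 and detected with biotinylated 6E10 from supernatants of APP-stable cells. Cells were exposed to compound for 24 h, 10-point dose response, top dose 100 μM or 10 μM, 0.1% DMSO. IC50 fitted to percent of control.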
For orientation: ELISA stands for enzyme-linked immunosorbent assay.

For assay [4], the target named is human recombinant BACE2 (Homo sapiens (Human), UniProt Q9Y5Z0). Nature of the assay: In vitro enzymatic BACE2 FRET assay. The class given is biochemical. The settings on record: read-out: IC50 IP (μM) BACE2 enzyme. In outline:
(§1)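 Read-out: dequenched fluorescence, excitation 488 nm, emission 590 nm, after proteolysis of a quenched peptide spanning the BACE cleavage site. Substrate at 50 nM, 1 h incubation, termination by Tris addition to neutral pH.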

Assay [5] deals with human recombinant BACE1 (Homo sapiens (Human), UniProt P56817). The assay is described as follows: In vitro enzymatic BACE1 FRET assay. The class given is biochemical. The settings on record: read-out: IC50 IP (μM) BACE1 enzyme. In outline: as §1
For assay [6], the system named is Aβ 40 in rat CSF. Nature of the assay: In vivo inhibition of beta-secretase: Aβ40 reduction in rat CSF. Conditions: 10 mpk, after 4 h. In outline:
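Male Sprague Dawley rats (200 g) dosed orally in 2% HPMC, 1% Tween80, pH 2.2, at 3, 10 or 30 mg/kg; CSF and brain taken 4 h later. Brain homogenate centrifuged at 355,000 g; Aβ40 measured by ECL sandwich ELISA (4G8 capture, Abeta40 C-terminal Fab detection), as % reduction versus vehicle controls.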

SMILES strings stand for the structures.

Chain of Recombinant Cat D (P07339 65-412): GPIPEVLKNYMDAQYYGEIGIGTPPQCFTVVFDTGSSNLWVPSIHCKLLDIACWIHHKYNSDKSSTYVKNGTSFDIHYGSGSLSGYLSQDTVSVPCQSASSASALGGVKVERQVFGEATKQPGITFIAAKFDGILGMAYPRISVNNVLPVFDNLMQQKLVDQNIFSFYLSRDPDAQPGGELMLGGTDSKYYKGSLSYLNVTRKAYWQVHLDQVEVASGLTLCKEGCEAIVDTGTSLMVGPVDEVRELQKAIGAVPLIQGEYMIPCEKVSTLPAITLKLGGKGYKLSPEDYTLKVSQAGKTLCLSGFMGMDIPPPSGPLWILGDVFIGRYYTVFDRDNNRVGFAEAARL
Chain of human recombinant BACE1 (P56817 46-501): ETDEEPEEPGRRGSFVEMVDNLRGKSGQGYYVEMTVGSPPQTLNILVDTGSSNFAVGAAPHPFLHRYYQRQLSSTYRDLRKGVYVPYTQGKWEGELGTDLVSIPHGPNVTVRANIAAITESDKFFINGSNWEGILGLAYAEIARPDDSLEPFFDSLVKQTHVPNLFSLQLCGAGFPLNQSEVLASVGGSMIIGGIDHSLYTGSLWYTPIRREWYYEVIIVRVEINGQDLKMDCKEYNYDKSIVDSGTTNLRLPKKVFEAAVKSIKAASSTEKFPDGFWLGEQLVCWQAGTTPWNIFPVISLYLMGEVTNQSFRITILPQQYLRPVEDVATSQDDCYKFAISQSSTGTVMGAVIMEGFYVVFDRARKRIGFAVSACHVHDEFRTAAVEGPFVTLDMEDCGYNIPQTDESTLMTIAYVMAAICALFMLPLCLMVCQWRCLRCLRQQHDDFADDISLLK
Chain of human recombinant BACE2 (Q9Y5Z0 63-518): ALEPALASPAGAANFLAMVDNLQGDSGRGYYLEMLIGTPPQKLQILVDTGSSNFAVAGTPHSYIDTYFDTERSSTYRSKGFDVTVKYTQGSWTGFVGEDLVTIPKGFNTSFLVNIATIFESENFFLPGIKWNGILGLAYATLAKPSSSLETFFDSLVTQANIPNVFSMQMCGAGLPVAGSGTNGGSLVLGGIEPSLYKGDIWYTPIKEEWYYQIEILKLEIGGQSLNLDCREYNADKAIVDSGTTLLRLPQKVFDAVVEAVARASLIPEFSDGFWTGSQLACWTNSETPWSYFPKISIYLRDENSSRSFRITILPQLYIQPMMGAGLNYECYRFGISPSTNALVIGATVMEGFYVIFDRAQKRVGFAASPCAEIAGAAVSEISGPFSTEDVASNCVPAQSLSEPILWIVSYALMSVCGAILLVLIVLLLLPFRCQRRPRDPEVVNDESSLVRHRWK

Turning to `NC1=N[C@](CF)(c2cc(Nc3nccc4nc(OCc5cocn5)cnc34)cc(F)c2F)[C@@H]2C[C@@H]2S1` [Example 843, N-(3-((1S,5S,6S)-3-amino-5-(fluoromethyl)-2-thia-4-azabicyclo[4.1.0]hept-3-en-5-yl)-4,5-difluorophenyl)-2-(1,3-oxazol-4-ylmethoxy)pyrido[3,4-b]pyrazin-5-amine], the half-inhibitory concentration (IC50) in assay [1] amounted to 432 µM; in assay [3] it was 0.0493 µM; in assay [4] it was 0.115 µM; in assay [5], 0.00378 µM. Also, the “% Aβ 40 reduction in rat brain at 10 mpk” value in assay [2] worked out at 16%. The “% Aβ 40 reduction in rat CSF at 10 mpk” value in assay [6] was found to be 51%.
`C#CCOc1cnc2c(Nc3cc(F)c(F)c([C@@]4(C)N=C(N)S[C@@]5(C(N)=O)C[C@H]54)c3)nccc2n1` [Example 911, (1S,5S,6S)-3-amino-5-(2,3-difluoro-5-((2-(2-propyn-1-yloxy)pyrido[3,4-b]pyrazin-5-yl)amino)phenyl)-5-methyl-2-thia-4-azabicyclo[4.1.0]hept-3-ene-1-carboxamide]: the half-inhibitory concentration (IC50) in assay [1] is above 400 µM; in assay [3], 0.0038 µM; in assay [4], 0.00714 µM; in assay [5] it was 0.000649 µM. Also, in assay [2], the “% Aβ 40 reduction in rat brain at 10 mpk” value was 20%. Further, the “% Aβ 40 reduction in rat CSF at 10 mpk” value in assay [6] is 21%.
`C#CCOc1cnc2c(Nc3cc(F)c(F)c([C@@]4(C)N=C(N)S[C@@]5(C(=O)NC)C[C@H]54)c3)nccc2n1` [Example 915, (1S,5S,6S)-3-amino-5-(2,3-difluoro-5-((2-(2-propyn-1-yloxy)pyrido[3,4-b]pyrazin-5-yl)amino)phenyl)-N,5-dimethyl-2-thia-4-azabicyclo[4.1.0]hept-3-ene-1-carboxamide]: the half-maximal inhibitory concentration (IC50) in assay [1] is above 400 µM; in assay [3], 0.00195 µM; in assay [4], 0.0101 µM; in assay [5], 0.000426 µM. Besides, the “% Aβ 40 reduction in rat brain at 10 mpk” value in assay [2] was 47%. Further, the “% Aβ 40 reduction in rat CSF at 10 mpk” value in assay [6] is 51%.
Turning to `C#CCOc1cnc2c(Nc3cc(F)c(F)c([C@@]4(C)N=C(N)S[C@@]5(C#N)C[C@H]54)c3)ncnc2c1` [Example 921, (1S,5S,6S)-3-amino-5-(2,3-difluoro-5-((7-(2-propyn-1-yloxy)pyrido[3,2-d]pyrimidin-4-yl)amino)phenyl)-5-methyl-2-thia-4-azabicyclo[4.1.0]hept-3-ene-1-carbonitrile], the half-maximal inhibitory concentration (IC50) in assay [1] is 172 µM; in assay [3] it was 0.0206 µM; in assay [4], 0.0627 µM; in assay [5], 0.00198 µM. Also, the “% Aβ 40 reduction in rat brain at 10 mpk” value in assay [2] stood at 64%. Besides, in assay [6], the “% Aβ 40 reduction in rat CSF at 10 mpk” value stood at 70%.
Turning to `C#CCOc1cnc(C(=O)Nc2cc(F)c(F)c([C@@]3(C)N=C(N)S[C@@]4(C#N)C[C@H]43)c2)cn1` [Example 924, N-(3-((1S,5S,6S)-3-amino-1-cyano-5-methyl-2-thia-4-azabicyclo[4.1.0]hept-3-en-5-yl)-4,5-difluorophenyl)-5-(2-propyn-1-yloxy)-2-pyrazinecarboxamide], the IC50 in assay [1] was 17.8 µM; in assay [3], 0.00138 µM; in assay [4] it was below 0.00203 µM; in assay [5], 0.000249 µM. The “% Aβ 40 reduction in rat brain at 10 mpk” value in assay [2] stood at 76%. For the same compound, in assay [6], the “% Aβ 40 reduction in rat CSF at 10 mpk” value is 84%.
As for `C#C[C@H](C)Oc1cnc2c(Nc3cc(F)c(F)c([C@@]4(C)N=C(N)S[C@@]5(C#N)C[C@H]54)c3)nccc2n1` [Example 931, (1S,5S,6S)-3-amino-5-(2,3-difluoro-5-((2-(((1S)-1-methyl-2-propyn-1-yl)oxy)pyrido[3,4-b]pyrazin-5-yl)amino)phenyl)-5-methyl-2-thia-4-azabicyclo[4.1.0]hept-3-ene-1-carbonitrile], the IC50 came out at 633 µM in assay [1], 0.0386 µM in assay [3], 0.0551 µM in assay [4] and 0.000902 µM in assay [5]. In addition, the “% Aβ 40 reduction in rat brain at 10 mpk” value in assay [2] is listed as 3%. The “% Aβ 40 reduction in rat CSF at 10 mpk” value in assay [6] came out at 8%.

A word on the IC50: it is the midpoint of a concentration-inhibition curve.
